Values of other authors in US20200046722A1, “METHOD AND COMPOSITION FOR TREATING EATING DISORDERS” (India Globalization Capital, Inc., priority 2017, published 2020).

Legend:
[1] = system: patients with cancer related anorexia-cachexia syndrome; settings: at the dosage administered
cats = settings: versus placebo

SMILES | appetite versus placebo [1] | patient's quality of life versus placebo [1] | appetite in comparison with placebo (cats) | food ingested in comparison with placebo (cats)
CCCCCc1cc(O)c2c(c1)OC(C)(C)[C@@H]1CCC(C)=C[C@@H]21 [Delta-9-tetrahydrocannabinol (THC), Delta-9-tetrahydrocannabinol] | no difference | no difference | – | –
CN1CCN2c3ncccc3Cc3ccccc3C2C1 (stereo not drawn) [mirtazapine, 1,2,3,4,10,14b-hexahydro-2-methylpyrazino[2,1-α]pyrido[2,3-c]benzazepine] | – | – | greater appetite | ingested significantly more food
